# Earlier results in US12128066B2, “Product for treating skin fungus and its micronized preparation method” (priority 2021, dated 2024).
# Settings: in water or organic solvents
structure (smiles),measurement,value
S=[Se]=S [Selenium disulfide],Solubility,almost insoluble
